Test results: patent US5326902A, “Oxyalkyne compounds, pharmaceutical compositions containing them and processes for preparing such compounds and compositions” (Gruenenthal GmbH, priority 1992, dated 1994)

Tests used:
5-lipoxygenase [1] = molecular target: T1, 5-lipoxygenase (Rattus norvegicus, UniProt P12527); test: Inhibition of 5-lipoxygenase in RBL-1-cells; format: cell-based; conditions: 20 μM [14C]-arachidonic acid, 20 μM calcium ionophore A 23 187, 10 minutes
T1 construct: endogenous in cells; host or cells: RBL-1 cells (rat basophilic leukemia)
T1 sequence (P12527 1-673): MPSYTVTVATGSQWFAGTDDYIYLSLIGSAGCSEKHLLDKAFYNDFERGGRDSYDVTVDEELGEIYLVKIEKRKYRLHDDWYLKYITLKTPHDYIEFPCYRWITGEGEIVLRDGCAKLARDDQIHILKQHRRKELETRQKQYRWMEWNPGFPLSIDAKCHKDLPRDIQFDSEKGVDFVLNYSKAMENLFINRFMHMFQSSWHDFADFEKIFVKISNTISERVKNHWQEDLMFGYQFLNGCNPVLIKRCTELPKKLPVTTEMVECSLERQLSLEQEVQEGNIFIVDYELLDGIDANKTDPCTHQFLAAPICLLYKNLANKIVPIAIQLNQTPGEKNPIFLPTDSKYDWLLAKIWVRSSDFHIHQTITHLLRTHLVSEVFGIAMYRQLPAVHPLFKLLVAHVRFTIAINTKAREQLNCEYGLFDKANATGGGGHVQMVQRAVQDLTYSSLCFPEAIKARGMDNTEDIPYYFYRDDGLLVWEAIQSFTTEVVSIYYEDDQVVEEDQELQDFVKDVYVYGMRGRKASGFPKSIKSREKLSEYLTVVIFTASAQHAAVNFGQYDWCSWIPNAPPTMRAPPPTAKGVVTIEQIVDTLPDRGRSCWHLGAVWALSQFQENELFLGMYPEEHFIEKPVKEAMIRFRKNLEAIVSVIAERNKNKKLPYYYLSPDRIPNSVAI
Experimental: To determine the inhibition of 5-lipoxygenase, rat basophilic leukemia cells (RBL-1-cells) were cultured in vitro, harvested by centrifugation, washed with 50 mM potassium phosphate buffer of pH 7.4, and then suspended in this buffer at 1×10^7 cells/ml. Indomethacin (10 μM) and calcium chloride (2 mM) were added to 1 ml portions of this suspension, and then the mixture was incubated either in the presence of a compound according to the invention in a concentration range of from 0,1 μM to 100 μM or in the presence of a solvent (ethanol and/or dimethyl sulfoxide) for 3 minutes and thereafter with 20 μM of [^14 C]-arachidonic acid and 20 μM of calcium ionophore A 23 187 for 10 minutes. The reaction was stopped by adding 20 μl of glacial acetic acid, and then the mixture was extracted with ethyl acetate to isolate the metabolites of arachidonic acid formed by the enzymatic action of 5-lipoxygenase. These were separated by thin layer chromatography using a solvent mixture known to be suitable for lipoxygenase products [c.f. Jakschik et al., Biochem. Biophys. Res. Commun. 102, 624 (1981)].
The distribution of radioactivity among the different metabolites of arachidonic acid was measured using a TLC Linear Analyzer. By correlating the percentage amounts of the products formed under the action of 5-lipoxygenase (5HETE, isomers of LTB4) in the absence as well as in the presence of different concentrations of compounds according to the invention, the IC50 -values, i.e. the concentrations which cause a 50% inhibition of 5-lipoxygenase, were determined graphically from semilogarithmic plots.

[2] = tested on: bronchoconstriction elicited by ovalbumin; test: Allergen-induced bronchoconstriction in guinea pigs (Konzett-Rossler); format: in vivo, guinea pig; conditions: Cavia porcellus, 1 h; oral, 60 minutes before ovalbumin (0.2 mg/kg intravenous); passively sensitized guinea pigs; read-out: ED40-Value (40% average inhibition of the bronchoconstriction elicited by ovalbumin)
Experimental: The anti-asthmatic effect of compounds according to the invention was tested in anesthetized and ventilated guinea pigs. To induce an asthmatic reaction, the animals were passively sensitized by a single intraperitoneal injection of anti-ovalbumin serum. After 48 hours, the asthmatic reaction was elicited by intravenous challenge with 0.2 mg/kg of ovalbumin. The immediately resulting bronchoconstriction was measured as an increase in intratracheal pressure. Effects caused by histamine, serotonin and sympathic counterreaction were eliminated by intravenous pretreatment with 2.15 mg/kg of mepyramine, 46.4 μg/kg of propranolol, 4.64 mg/kg of atropine and 1 mg/kg of methysergide, all administered 5 minutes before challenge. Compounds according to the invention were administered orally 60 minutes before the administration of ovalbumin. The following […] for the inhibition of the bronchoconstriction elicited by ovalbumin, i.e. the effective doses causing a 40% average inhibition of the bronchoconstriction, were determined: […]

5-lipoxygenase [3] = molecular target: T1, 5-lipoxygenase; test: Inhibition of Cell-free 5-lipoxygenase from RBL-1-cells (polarographic, 10,000 × g supernatant); format: biochemical; conditions: 10,000 × g supernatant of homogenized RBL-1-cells; arachidonic acid 75 μM; 35° C.; calculated IC50
Experimental: Cell-free 5-lipoxygenase was polarographically measured from 10,000 × g supernatant of homogenized rat basophilic leucemia cells (M. Haurand & L. Flohe in Biol. Chem. Hoppe-Seyler 369, 133 to 142 (1988)). After preincubation of the 10,000 × g supernatant with arachidonic acid (75 μM), ATP (adenosine triphosphate; 4 mM), reduced glutathione (4 mM), and either a compound according to the invention (0.1 to 100 μM) or a solvent (ethanol and/or dimethyl sulfoxide) at 35° C. for 5 minutes, the lipoxygenase reaction was initiated by addition of calcium chloride (3 mM) and simultaneously recorded.
The activity of 5-lipoxygenase was determined from the difference in the pO2 -decrease before and after addition of calcium chloride. The evaluation included the initial rate of the reaction after the lag-phase as well as the duration of the lag-phase. In the concentration range of from 3 to 50 μM, the test substances induced lag-phases between 20 and 60 seconds.

5-lipoxygenase [4] = test: Inhibition of 5-lipoxygenase in Rat Blood After Oral Administration (ex vivo iLTB4-formation); conditions: male Wistar rats, one hour after administration
Experimental: The bioavailability of the compounds of formula I as 5-lipoxygenase inhibitors was characterized by means of an ex vivo biochemical assay method described by Tateson et al. in Brit. J. Pharmacol. 94, 528 (1988): A compound of formula I was orally administered to male rats (Wistar strain) at a dose of 21.5 mg/kg. After lethal CO2 -narcosis one hour after administration, the rats were bled by heart puncture with added heparin as an anticoagulant. Aliquots of the whole blood were incubated at 37° C. for 30 minutes in a water bath with calcium ionophore A 23 187 at an end concentration of 15 μg/ml. At the end of the incubation, the samples were centrifuged, and the concentration of the immunoreactive LTB4 (iLTB4) in aliquots of cell-free plasma was determined by radioimmunoassay (3H-LTB4 -RIA, Amersham). To enable calculation of the inhibition in percent of ex vivo iLTB4 -formation in whole rat blood treated with a compound according to the invention, rats orally treated with an appropriate vehicle solution were included in all experiments, and aliquots of their blood were run in parallel and were processed in the same way as described. The average iLTB4 -content of the plasma of the vehicletreated rats served as a 100% value. The activity in percent of the ex vivo iLTB4 -formation after oral administration of a compound according to the invention was calculated by dividing the average value of the iLTB4 -contents in ng iLTB4 /ml of the group treated with a compound according to the invention by the average value of the iLTB4 -contents in ng iLTB4 /ml of the vehicle treated group and subsequent multiplication by a factor of 100. The respective inhibition in percent was calculated by subtracting the activity in percent from 100.

IC50 (5-lipoxygenase [1]) [µM] | IC50 (5-lipoxygenase [3]) [µM] | SMILES | further results
4 |  | CC(=O)N(O)Cc1ccc(C(O)C#Cc2ccccc2)cc1 (single isomer, unassigned; (+)) [Example 2, (+)-N-Hydroxy-N-[4-[1-hydroxy-3-phenyl-prop-2-yn-1-yl]benzyl]acetamide] | 
5 |  | CC(=O)N(O)Cc1ccc(C(O)C#Cc2ccccc2)cc1 (single isomer, unassigned; (-)) [Example 3, (-)-N-Hydroxy-N-[4-[1-hydroxy-3-phenyl-prop-2-yn-1-yl]benzyl]acetamide] | ED40 [2]: 9 mg/kg
4 | 5 | CCOC(C#Cc1ccccc1)c1ccc(CN(O)C(C)=O)cc1 (centres unmarked) [Example 5] | 
 | 8 | CC(=O)N(O)C(C)c1ccc(C(O)C#Cc2ccccc2)cc1 (centres unmarked) [Example 6, N-Hydroxy-N-[1-[4-(1-hydroxy-3-phenyl-prop-2-yn-1-yl)phenyl]ethyl]acetamide] | 
4 |  | CC(=O)N(O)Cc1ccc(C(O)C#Cc2ccccc2Cl)cc1 (centres unmarked) [Example 9, N-Hydroxy-N-[4-[1-hydroxy-3-(2-chlorophenyl)prop-2-yn-1-yl]benzyl]acetamide] | 
4 |  | CC(=O)N(O)Cc1ccc(C(O)C#Cc2cccc(Cl)c2)cc1 (centres unmarked) [Example 10, N-Hydroxy-N-[4-[1-hydroxy-3-(3-chlorophenyl)prop-2-yn-1-yl]benzyl]acetamide] | Inhibition [%] of ex vivo iLTB4-formation (5-lipoxygenase [4]; 21.5 mg/kg oral): 75%
8 |  | CC(=O)N(O)Cc1ccc(C(O)C#Cc2ccc(Cl)cc2)cc1 (centres unmarked) [Example 11, N-Hydroxy-N-[4-[1-hydroxy-3-(4-chlorophenyl)prop-2-yn-1-yl]benzyl]acetamide] | Inhibition [%] of ex vivo iLTB4-formation (5-lipoxygenase [4]; dose 10 mg/kg, oral): 95%
3 | 3 | COc1cccc(C#CC(O)c2ccc(CN(O)C(C)=O)cc2)c1 (centres unmarked) [Example 13, N-Hydroxy-N-[4-[1-hydroxy-3-(3-methoxyphenyl)prop-2-yn-1-yl]benzyl]acetamide] | 
3 | 7 | CC(=O)N(O)Cc1ccc(C(O)C#Cc2cccc3ccccc23)cc1 (centres unmarked) [Example 15, N-Hydroxy-N-[4-[1-hydroxy-3-(1-naphthyl)prop-2-yn-1-yl]benzyl]acetamide] | Inhibition [%] of ex vivo iLTB4-formation (5-lipoxygenase [4]; 21.5 mg/kg oral): 71%
5 |  | CC(=O)N(O)Cc1ccc(C(O)C#Cc2ccsc2)cc1 (centres unmarked) [Example 17, N-Hydroxy-N-[4-[1-hydroxy-3-(3-thienyl)prop-2-yn-1-yl]benzyl]acetamide] | Inhibition [%] of ex vivo iLTB4-formation (5-lipoxygenase [4]; 21.5 mg/kg oral): 77%
3 |  | CC(=O)N(O)Cc1cccc(C(O)C#Cc2ccccc2)c1 (centres unmarked) [Example 19, N-Hydroxy-N-[3-[1-hydroxy-3-phenyl-prop-2-yn-1-yl]benzyl]acetamide] | 
 | 7 | CC(=O)N(O)Cc1cccc(C(O)C#Cc2ccsc2)c1 (centres unmarked) [Example 20, N-Hydroxy-N-[3-[1-hydroxy-3-(3-thienyl)prop-2-yn-1-yl]benzyl]acetamide] | 
4 | 8 | NC(=O)N(O)Cc1ccc(C(O)C#Cc2ccccc2Cl)cc1 (centres unmarked) [Example 22, N-Hydroxy-N-[4-[1-hydroxy-3-(2-chlorophenyl)prop-2-yn-1-yl]benzyl]urea] | Inhibition [%] of ex vivo iLTB4-formation (5-lipoxygenase [4]; dose 10 mg/kg, oral): 83%
4 |  | NC(=O)N(O)Cc1ccc(C(O)C#Cc2cccc(Cl)c2)cc1 (centres unmarked) [Example 23, N-Hydroxy-N-[4-[1-hydroxy-3-(3-chlorophenyl)prop-2-yn-1-yl]benzyl]urea] | ED40 [2]: 18 mg/kg
3 |  | NC(=O)N(O)Cc1ccc(C(O)C#Cc2ccc(Cl)cc2)cc1 (centres unmarked) [Example 24, N-Hydroxy-N-[4-[1-hydroxy-3-(4-chlorophenyl)prop-2-yn-1-yl]benzyl]urea] | 
4 |  | COc1cccc(C#CC(O)c2ccc(CN(O)C(N)=O)cc2)c1 (centres unmarked) [Example 26, N-Hydroxy-N-[4-[1-hydroxy-3-(3-methoxyphenyl)prop-2-yn-1-yl]benzyl]urea] | ED40 [2]: 17 mg/kg
3 |  | NC(=O)N(O)Cc1ccc(C(O)C#Cc2cccs2)cc1 (centres unmarked) [Example 27, N-Hydroxy-N-[4-[1-hydroxy-3-(2-thienyl)prop-2-yn-1-yl]benzyl]urea] | 
4 |  | NC(=O)N(O)Cc1ccc(C(O)C#Cc2ccsc2)cc1 (centres unmarked) [Example 28, N-Hydroxy-N-[4-[1-hydroxy-3-(3-thienyl)prop-2-yn-1-yl]benzyl]urea] | ED40 [2]: 17 mg/kg
4 |  | NC(=O)N(O)Cc1cccc(C(O)C#Cc2ccccc2)c1 (centres unmarked) [Example 29, N-Hydroxy-N-[3-[1-hydroxy-3-phenyl-prop-2-yn-1-yl]benzyl]urea] | 
5 | 6 | CCOC(C#Cc1ccc(OC)c(OC)c1)c1ccc(CN(O)C(C)=O)cc1 (centres unmarked) [Example 33, N-Hydroxy-N-[4-[1-ethoxy-3-(3,4-dimethoxyphenyl)prop-2-yn-1-yl]benzyl]acetamide] | 
3 | 5 | CCOC(C#Cc1cccs1)c1ccc(CN(O)C(N)=O)cc1 (centres unmarked) [Example 35, N-Hydroxy-N-[4-[1-ethoxy-3-(2-thienyl)prop-2yn-1-yl]benzyl]urea] | 

SMILES | IC50 (5-lipoxygenase [1]) [µM] | IC50 (5-lipoxygenase [3]) [µM] | further results
CC(=O)OC(C#Cc1ccccc1)c1ccc(CN(O)C(C)=O)cc1 (centres unmarked) [Example 4, N-Hydroxy-N-[4-[1-acetoxy-3-phenyl-prop-2-yn-1-yl]benzyl]acetamide] | 4 | 9 | 
